Entries after “also recorded” stand apart in the source; their conditions may differ.
Tested on: db/db mice
Experiment: Evaluation of anti-diabetic effects in db/db mice
Assay type: in vivo
Details: oral, 4 weeks; for anti-diabetic effects: BER 50 mg/kg/d, GLY 80 mg/kg/d alone, 50 or 80 mg/kg/d with BER
Protocol: Eight-week-old male db/db mice (30–35 g) were used, and the details were described in Supplemental Data. The mice were randomly divided into eight groups. Mice were orally administered with metformin (100 mg/kg/d, n = 6), berberine (50 mg/kg/d, n = 6), glycyrrhizic acid (80 mg/kg/d, n = 6), berberine (50 mg/kg/d) combined with low-dose of glycyrrhizic acid (50 mg/kg/d, n = 6), berberine (50 mg/kg/d) combined with high-dose of glycyrrhizic acid (80 mg/kg/d, n = 6), berberine (50 mg/kg/d) combined with Gan-Cao (2.2 g/kg/d, n = 7), and GQD (18.2 g/kg/d, n = 7) for 4 weeks. For the control group, the […] were administered with an equal volume of water. On day 28, after fasted for 12 h, retro-orbital blood samples were collected, stand for 1 h, and then centrifuged (6,000 rpm, 4°C) for 20 min to obtain serum. Biochemical indicators such as blood glucose and insulin were determined on a Mindray BS-800 analyzer (Mindray Bio-Medical Electronics Co.).
Herbal materials and extracts.
The four component herbs, Puerariae Lobatae Radix (Ge-Gen, GG), Scutellariae Radix (Huang-Qin, HQ), Coptidis Rhizoma (Huang-Lian, HL), and Glycyrrhizae Radix et Rhizoma Praeparata cum Melle (Gan-Cao, GC) were purchased from Tianheng Pharmacy. GQD was prepared by decocting the four component herbs […]
of water for three times (1.5 h, 1.5 h, 0.5 h) to obtain the extracts, followed by a pre-extraction of Ge-Gen using 200 mL of water for 0.5 h. The decoctions were combined, filtered, and concentrated in vacuum at 50 °C. GQD-GC was prepared using the same procedure, except that Gan-Cao was removed from the formula. Final concentration of the GQD-GC extract was equivalent to 1.0 g of the crude drugs per mL. For single herb extracts, the herbs were decocted in 8-fold volume of water for three times (1.5 h, 1.5 h, 0.5 h) and then concentrated. […]
For anti-diabetic study, Eight-week-old male db/db mice (30–35 g) were purchased from Card Vince Laboratory animal Co., Ltd. The mice were bred in a cage (318 × 202 × 135 mm) in a breeding room at 25 °C, 60 ± 5% humidity, and a 12-h dark-light […]
On day 28, db/db mice were fasted for 12 h, and blood was collected and centrifuged to obtain serum for insulin and biochemical tests. After that, 150 µL of plasma was prepared by adding 150 µL of internal standard solution, 150 µL of methanol, and 300 µL of acetonitrile. The processing method was consistent with sample preparation for […]
3.1. Optimization of chromatographic separation
Different solvents (67% methanol, and 100% methanol) were compared to effectively extract both hydrophilic and hydrophobic compounds of GQD. […]
better extraction recovery for most compounds. […]

`COc1ccc2cc3[n+](cc2c1OC)CCc1cc2c(cc1-3)OCO2` [Compound 24, berberine] was tested, and the anti-diabetic effects (listed as BER) was “confirmed its anti-diabetic activities; also recorded: significant anti-diabetic and hypolipidemic activities” and the “ALT and AST levels (liver damage)” value (serum) was “decreasing”.
In the case of `CC1(C)[C@@H](O[C@H]2O[C@H](C(=O)O)[C@@H](O)[C@H](O)[C@H]2O[C@@H]2O[C@H](C(=O)O)[C@@H](O)[C@H](O)[C@H]2O)CC[C@]2(C)[C@H]3C(=O)C=C4[C@@H]5C[C@@](C)(C(=O)O)CC[C@]5(C)CC[C@@]4(C)[C@]3(C)CC[C@@H]12` [Compound 36, glycyrrhizic acid], the anti-diabetic effects (listed as GLY) is reported as “did not show observable anti-diabetic effects”.

— paper PMC6018403 (Frontiers in Pharmacology, 2018)
